Results reported in US11033535B2, “Oxadiazoles and thiadiazoles as TGF-β inhibitors” (Southern Research Institute, priority 2017, dated 2021).
Like-named read-outs stand apart in the source and are kept apart here.

Assay: Pharmacokinetic evaluation following a single oral and intravenous administration
Format: in vivo, CD1 mouse
Conditions: CD1, mouse, plasma; for C0 / AUC(0-inf) / AUC(0-t) / MRT inf / half-life / Vd: Table 4, IV Dose: 1 mg/kg
Protocol: A NMP stock solution was prepared by adding 1.136 mL of NMP to 5.68 mg of compound no. 42140 with vortexing and sonification, to obtain a solution with a concentration at 5 mg/mL of 42140:01. Next, to prepare an intravenous formulation, 0.100 mL of the 5 mg/mL stock solution was placed in a new vial. 0.100 mL of NMP and 0.400 mL of PEG400 were added with vortexing and sonification, followed by addition of 0.400 mL of saline with vortexing and sonification. […] 42140:01. Alternatively, to prepare an oral formulation, 0.200 mL of the 5 mg/mL stock solution was placed in a new vial. 0.400 mL of PEG400 was added with vortexing and sonification, followed by addition of 0.400 mL of saline with vortexing and sonifiction. […] 42140:01.
(§1) Briefly, the desired serial concentrations of working solutions were achieved by diluting a stock solution of the compound with 100% acetonitrile. 3 μL of working solutions (5, 10, 20, 50, 100, 500, 1000, 5000, 10000 ng/mL) were added to 30 μL of the blank CD1 mouse plasma to achieve calibration standards of 0.5-1000 ng/mL (0.5, 1, 2, 5, 10, 50, 100, 500, 1000 ng/mL) in a total volume of 33 μL. Five quality control samples at 1 ng/mL, 2 ng/mL, 5 ng/mL, 50 ng/mL and 800 ng/mL for plasma were prepared independently of those used for the calibration curves. These QC samples were prepared on the day of analysis in the same way as calibration standards.
Next, 33 μL standards, 33 μL QC samples, and 33 μL unknown samples (30 μL plasma with 3 μL blank solution) were added to 200 μL of acetonitrile containing IS mixture for precipitating protein, respectively. Then the samples were vortexed for 30 s. After centrifugation at 4 degree Celsius, 4000 rpm for 15 min, 3 μL of supernatant was injected into the LC/MS/MS system for quantitative analysis.
HPLC analysis was performed using 100% water with 0.1% formic acid (Solution A) and 100% acetonitrile with 0.1% formic acid (Solution B) with a flow rate of 0.6 mL/min.
A NMP stock solution was prepared by adding 2.092 mL of NMP to 10.46 mg of […] with vortexing and sonification, to obtain a solution with a concentration at 5 mg/mL of […]. Next, to prepare an intravenous formulation, 0.100 mL of the 5 mg/mL stock solution was placed in a new vial. 0.100 mL of NMP and 0.400 mL of PEG400 were added with vortexing and sonification, followed by addition of 0.400 mL of saline with vortexing and sonification. […] 42320:01. Alternatively, to prepare an oral formulation, 0.200 mL of the 5 mg/mL stock solution was placed in a new vial. 0.400 mL of PEG400 was added with vortexing and sonification, followed by addition of 0.400 mL of saline with vortexing and sonifiction. […] 42320:01.
as §1, with “50 ng/mL,” for “50 ng/mL”

[1] = iv, 1 mg/kg, Table 3, IV Dose: 1 mg/kg, Mouse 1, read-out: Concentration
[2] = iv, 1 mg/kg, Table 3, IV Dose: 1 mg/kg, Mouse 2, read-out: Concentration
[3] = iv, 1 mg/kg, Table 3, IV Dose: 1 mg/kg, Mouse 3, read-out: Concentration
[4] = iv, 1 mg/kg, Table 3, IV Dose: 1 mg/kg, mean, read-out: Concentration, Mean
[5] = po, 5 mg/kg, Table 5, PO Dose: 5 mg/kg, Mouse 4, read-out: Concentration
[6] = po, 5 mg/kg, Table 5, PO Dose: 5 mg/kg, Mouse 5, read-out: Concentration
[7] = po, 5 mg/kg, Table 5, PO Dose: 5 mg/kg, Mouse 6, read-out: Concentration
[8] = po, 5 mg/kg, Table 5, PO Dose: 5 mg/kg, mean, read-out: Concentration, Mean

concentration at 5 min [1]: 96.6 ng/mL
concentration at 5 min [2]: 89.5 ng/mL
concentration at 5 min [3]: 86.3 ng/mL
concentration at 5 min [4]: 90.8 ng/mL
concentration at 0.25 h [1]: 81.5 ng/mL
concentration at 0.25 h [2]: 65 ng/mL
concentration at 0.25 h [3]: 74.2 ng/mL
concentration at 0.25 h [4]: 73.6 ng/mL
concentration at 0.5 h [1]: 57.2 ng/mL
concentration at 0.5 h [2]: 53.8 ng/mL
concentration at 0.5 h [3]: 48.1 ng/mL
concentration at 0.5 h [4]: 53 ng/mL
concentration at 1 h [1]: 57.8 ng/mL
concentration at 1 h [2]: 42.1 ng/mL
concentration at 1 h [3]: 43.7 ng/mL
concentration at 1 h [4]: 47.9 ng/mL
concentration at 2 h [1]: 43.7 ng/mL
concentration at 2 h [2]: 34.1 ng/mL
concentration at 2 h [3]: 39.9 ng/mL
concentration at 2 h [4]: 39.2 ng/mL
concentration at 4 h [1]: 26.1 ng/mL
concentration at 4 h [2]: 18.8 ng/mL
concentration at 4 h [3]: 23.3 ng/mL
concentration at 4 h [4]: 22.7 ng/mL
concentration at 8 h [1]: 16.9 ng/mL
concentration at 8 h [2]: 15.5 ng/mL
concentration at 8 h [3]: 14.9 ng/mL
concentration at 8 h [4]: 15.8 ng/mL
concentration at 24 h [1]: 6.4 ng/mL
concentration at 24 h [2]: 5.76 ng/mL
concentration at 24 h [3]: 4.27 ng/mL
concentration at 24 h [4]: 5.48 ng/mL
C0 (iv, 1 mg/kg, Mouse 1): 105 ng/mL
AUC(0-inf) (iv, 1 mg/kg, Mouse 1, read-out: AUCInf): 557 ng·h/mL
AUC(0-t) (iv, 1 mg/kg, Mouse 1, read-out: AUClast): 462 ng·h/mL
MRT inf (iv, 1 mg/kg, Mouse 1, read-out: MRTInf—obs): 12.1 h
half-life (iv, 1 mg/kg, Mouse 1, read-out: T1/2 (converted)): 10.3 h
Vd (iv, 1 mg/kg, Mouse 1, read-out: Vss—obs): 21.8 L/kg
C0 (iv, 1 mg/kg, Mouse 2): 105 ng/mL
AUC(0-inf) (iv, 1 mg/kg, Mouse 2, read-out: AUCInf): 486 ng·h/mL
AUC(0-t) (iv, 1 mg/kg, Mouse 2, read-out: AUClast): 389 ng·h/mL
MRT inf (iv, 1 mg/kg, Mouse 2, read-out: MRTInf—obs): 13.7 h
half-life (iv, 1 mg/kg, Mouse 2, read-out: T1/2 (converted)): 11.6 h
Vd (iv, 1 mg/kg, Mouse 2, read-out: Vss—obs): 28.1 L/kg
C0 (iv, 1 mg/kg, Mouse 3): 93 ng/mL
AUC(0-inf) (iv, 1 mg/kg, Mouse 3, read-out: AUCInf): 445 ng·h/mL
AUC(0-t) (iv, 1 mg/kg, Mouse 3, read-out: AUClast): 394 ng·h/mL
MRT inf (iv, 1 mg/kg, Mouse 3, read-out: MRTInf—obs): 9.69 h
half-life (iv, 1 mg/kg, Mouse 3, read-out: T1/2 (converted)): 8.36 h
Vd (iv, 1 mg/kg, Mouse 3, read-out: Vss—obs): 21.8 L/kg
AUC(0-inf) (iv, 1 mg/kg, mean, read-out: AUCInf, Mean): 496 ng·h/mL
AUC(0-t) (iv, 1 mg/kg, mean, read-out: AUClast, Mean): 415 ng·h/mL
MRT inf (iv, 1 mg/kg, mean, read-out: MRTInf—obs, Mean): 11.8 h
half-life (iv, 1 mg/kg, mean, read-out: T1/2, Mean (converted)): 10.1 h
Vd (iv, 1 mg/kg, mean, read-out: Vss—obs, Mean): 23.9 L/kg
concentration at 0.25 h [5]: 54.5 ng/mL
concentration at 0.25 h [6]: 60.6 ng/mL
concentration at 0.25 h [7]: 73.1 ng/mL
concentration at 0.25 h [8]: 62.7 ng/mL
concentration at 0.5 h [5]: 92.2 ng/mL
concentration at 0.5 h [6]: 91.9 ng/mL
concentration at 0.5 h [7]: 106 ng/mL
concentration at 0.5 h [8]: 97 ng/mL
concentration at 1 h [5]: 117 ng/mL
Structure (SMILES): CNCc1ccc(C[C@H](NC(C)=O)c2nnc(-c3cccc(OC(F)(F)F)c3)s2)cc1 [Compound 42140, N-(2-(4-((methylamino)methyl)phenyl)-1-(5-(3-(trifluoromethoxy)phenyl)-1,3,4-thiadiazol-2-yl)ethyl)acetamide]
